Test in all cases: NCI tumour cell line growth inhibition, 48 h
Experiment [1] has as its system EKVX NSCLC.
Experiment [2] relates to HCT-116 colon.
Experiment [3] deals with HOP-92 NSCLC.
The test system of experiment [4] is HT29 colon.
In experiment [5] the test system is KM12 colon.
In experiment [6] the test system is M14 melanoma.
Experiment [7] concerns OVCAR-5 ovarian.
The subject of experiment [8] is RPMI-8226 leukemia.
Experiment [9] relates to DU-145 prostate.
Experiment [10] has as its system NCI-H460 lung.

Values joined by “and” are separate entries in the source; they are usually repeats but may differ in a detail not shown here. Equal values may be shown once.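 Step 1: Grow cells in 96-well plates. Step 2: Expose to compound for 48 hours at 5 concentrations. Step 3: Interpolate endpoints linearly; if unreached, use highest concentration. The concentration for 50% growth inhibition is given as GI50. TGI is the concentration that stops growth completely.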

Turning to `C=CCOC(=O)CC[C@H](NC(=O)[C@@H](CCC(F)(F)F)Cc1ccc(O)cc1)C(=O)OCC=C`, the TGI in experiment [1] is 73.4 µM; in [2], more than 100 µM; in [3], more than 100 µM; in experiment [4], more than 100 µM; in experiment [5], more than 100 µM; in experiment [6], 42.6 µM. Further, the results for the TGI in experiment [7] and in experiment [8] were more than 100 µM and 74.6 µM, respectively.
Regarding `CC(=O)Nc1ccc2c3c(cc(O)c2c1)N(C(=O)CCCC(=O)N1CC(CCl)c2c1cc(O)c1cc(NC(C)=O)ccc21)CC3CCl` (stereo unspecified), the TGI in experiment [9] was less than 0.01 µM; in experiment [1] it was 0.0925 µM; in [5], 11.6 µM; in experiment [6], 0.0175 µM; in experiment [10] it was more than 100 µM; in experiment [7] it was 0.276 µM. Moreover, in [8], the TGI is 0.0182 µM.
For the molecule `Cc1nc2sccn2c1C(=O)NN`, the TGI in [1], in experiment [2], in [3], in experiment [4], in experiment [5] and in [10] was more than 100 µM throughout. Also, the TGI in experiment [7] and in experiment [8] was more than 100 µM each time.
In the case of `OC12c3ccccc3C1CCCCC2N1CCCC1` (stereo unspecified), the TGI in [1], in experiment [2], in experiment [4], in experiment [5], in experiment [6] and in [10] was more than 100 µM throughout. In experiment [8], this molecule came in with a TGI of more than 100 µM.
`Cc1ccc(O)c(C(c2cccc(C(c3cc(C)ccc3O)c3cc(C)ccc3O)c2)c2cc(C)ccc2O)c1`: the TGI in experiment [9] came to 2.84 µM; in experiment [1], 3.63 µM; in experiment [2] it was 3.34 µM; in [4], 3.16 µM; in [5] it was 3.23 µM; in experiment [6] it was 3.45 µM. In addition, the values for the TGI in experiment [7] and in experiment [8] were 3.15 µM and 3.31 µM, respectively.
As to `FC1(F)[Se]C2C3CCC(C3)C2C1(F)F` (stereo unspecified), the TGI in [9], in [1], in experiment [2], in [5], in [6] and in experiment [10] was more than 100 µM throughout. The TGI in experiment [7] and in experiment [8] was more than 100 µM each time.
`C=CC(=O)Nc1ccc(NC(=O)C=C)c2c1C(=O)c1ccccc1C2=O`: the TGI is more than 100 µM in [1]; more than 100 µM in experiment [2]; more than 100 µM in experiment [4]; 29.1 µM in [5]; more than 100 µM in [6]; more than 100 µM in experiment [10]. The TGI in experiment [7] is more than 100 µM; in [8], 21.2 µM.
In the case of `COc1ccc(CNc2cnc3cc(N)ccc3n2)cc1`, the TGI in [1], in [2], in experiment [4], in experiment [5], in [6] and in [10] was more than 100 µM throughout. Also, the TGI in experiment [7] and in experiment [8] was more than 100 µM throughout.
As for `C=C(C)C12CC3CC(/C(=N/O)C(C1)/C3=N\O)[C@@]2(C)O` (stereo partly specified), the TGI in [1], in experiment [2], in experiment [4], in [6], in [10] and in [7] was more than 100 µM each time. Further, the TGI in experiment [8] is more than 100 µM.
On to `COc1ccc2c3c1OC1C(F)C=CC4(O)C(C2)NCCC314` (stereo unspecified), for which the TGI in experiment [9] was determined as 9.71 µM; in experiment [1], 11 µM; in [2], 3.01 µM; in [3], 20.2 µM; in experiment [4] it was 10.9 µM; in experiment [5] it was 13 µM. The results for the TGI in [6], in experiment [10] and in experiment [7] were 4.93 µM, 21.4 µM and 12.8 µM, respectively.
For the molecule `O=C1/C(=C\c2ccc(Cl)cc2)N=C(c2ccccc2)N1n1c(=O)cn[nH]c1=S`, the TGI was 58.3 µM in experiment [9]; more than 100 µM in [1]; more than 100 µM in [2]; more than 100 µM in [4]; more than 100 µM in experiment [5]; more than 100 µM in experiment [6]. The TGI in experiment [10] is more than 100 µM; in experiment [7], more than 100 µM; in [8] it was 62.1 µM.
Regarding `Cc1ccc2c(=O)cc(-c3sccc3C)[nH]c2n1`, the TGI in [9] is more than 67.3 µM; in experiment [1], more than 100 µM; in experiment [2], 18.7 µM; in experiment [3] it was more than 100 µM; in [4] it was 8.72 µM; in [5] it was more than 59.5 µM. Also, the TGI is more than 34.4 µM in [6], more than 79.8 µM in experiment [10] and more than 100 µM in experiment [7].
For `COc1ccc2c(c1)Cc1c(NCCN(C)C)ccc(C(=O)NCCCN(C)CCCNC(=O)c3ccc(NCCN(C)C)c4c3Nc3ccc(OC)cc3C4)c1N2`, the TGI in experiment [9] came out at 1.04 µM; in experiment [1], 0.643 µM; in [2] it was 0.239 µM; in experiment [3], 2.79 µM; in [4] it was 0.566 µM; in experiment [5], 0.887 µM. The TGI in experiment [6] is 1.79 µM; in experiment [10] it was 0.175 µM; in experiment [7] it was 0.631 µM.
For the molecule `CCOC(=O)c1cc(C2CCN(c3ccccc3)C2=O)c(/C(O)=C/C(C)=O)[nH]1` (stereo unspecified), the TGI in experiment [9], in experiment [1], in [2], in experiment [4], in experiment [5] and in experiment [6] was more than 100 µM in each case. Also, the TGI in experiment [10], in experiment [7] and in experiment [8] was more than 100 µM in each case.
For the molecule `COC(=O)[C@]12CC3C=CC1N(C3)C(CBr)c1c2n(S(=O)(=O)c2ccccc2)c2ccccc12` (stereo partly specified), the TGI in [9], in [1], in experiment [2], in [4], in experiment [5] and in experiment [6] was more than 100 µM each time. The TGI is more than 100 µM in experiment [10], more than 100 µM in [7] and 23.5 µM in [8].
As to `CSC1=N/C(=C\c2ccc(Cl)cc2)C(=O)N1CN1CCCCC1`, the TGI was more than 100 µM in experiment [9]; 53.3 µM in [1]; more than 100 µM in experiment [2]; more than 100 µM in [4]; more than 100 µM in experiment [5]; more than 100 µM in experiment [6]. Besides, the TGI in experiment [7] and in experiment [8] was more than 100 µM throughout.
Regarding `N#CC12C(=O)NC(=O)C1(C#N)C1C=CC2CC1` (stereo unspecified), the TGI in [9], in experiment [1], in experiment [2], in [4], in [5] and in experiment [6] was more than 100 µM each time. Also, the TGI in experiment [7] and in experiment [8] was more than 100 µM in each case.
As to `COC(=O)c1c([N+](=O)[O-])ncn1[C@H]1OC[C@@H](OC(C)=O)[C@@H](OC(C)=O)[C@@H]1OC(C)=O`, the TGI in experiment [9], in experiment [1], in experiment [2], in [3], in [4] and in [5] was more than 100 µM in each case. Further, the TGI in experiment [6], in experiment [10] and in experiment [7] was more than 100 µM in each case.
For `O=c1oc2ccc3ccccc3c2cc1-c1nnc(Nc2ccccc2)s1`, the TGI in experiment [9] is 55.5 µM; in [1] it was more than 100 µM; in experiment [2], 52.4 µM; in experiment [4], more than 100 µM; in [5] it was more than 100 µM; in experiment [6] it was more than 100 µM. Besides, the TGI in experiment [10] is 42.3 µM; in experiment [7], more than 100 µM; in [8], 50.9 µM.
Consider `N#CC(c1ccccc1)N(CCCCCCN(C(=O)c1ccccc1)C(C#N)c1ccccc1)C(=O)c1ccccc1` (stereo unspecified), for which the TGI in experiment [9] was more than 100 µM; in experiment [1], more than 100 µM; in [2], 83.4 µM; in [3], 50.3 µM; in experiment [4], more than 100 µM; in experiment [5], more than 100 µM. In addition, the TGI in experiment [6] is more than 100 µM; in [10] it was 84.2 µM; in experiment [7], more than 100 µM.
For `COc1ccc(C(c2ccccc2)(c2ccc(OC)cc2)N2C(=O)NC3C(CCCCC(=O)NCCCCCCOP(OCCC#N)N(C(C)C)C(C)C)SCC32)cc1` (stereo unspecified), the TGI in experiment [1] was 56.5 µM; in [2], 24.9 µM; in experiment [3] it was 35 µM; in [4] it was 31.7 µM; in experiment [5], 34 µM; in experiment [6], 34.2 µM. In addition, the TGI in [10] was found to be 33.8 µM.
As for `CC(=O)OC[C@H]1CN(OC(C)=O)C[C@@H](n2cc(C)c(=O)[nH]c2=O)O1`, the TGI in experiment [9], in experiment [1], in experiment [2], in experiment [5], in [6] and in experiment [10] was more than 100 µM in each case. Moreover, the TGI in experiment [7] and in experiment [8] was more than 100 µM each time.
As to `O=C1C2C(C(=O)N1c1ccccc1)C1(c3ccccc3)CCC2(C(=O)c2ccccc2)O1` (stereo unspecified), the TGI in [9], in experiment [1], in [2], in experiment [4], in experiment [5] and in experiment [6] was more than 10 µM in each case. Also, the TGI in experiment [10], in experiment [7] and in [8] was more than 10 µM throughout.
For `CC(C)(O)C(O)COc1c2c(cc3oc(=O)ccc13)OCO2` (stereo unspecified), the TGI in experiment [1], in experiment [2], in experiment [3], in [4], in experiment [5] and in [6] was more than 100 µM throughout. Besides, the TGI in experiment [10], in experiment [7] and in experiment [8] was more than 100 µM in each case.
Consider `Cc1ccc(CC2(C(=O)O)Cc3ccc(C)cc3C2)cc1` (stereo unspecified), for which the TGI in [9], in [1], in experiment [2], in experiment [4], in experiment [5] and in experiment [6] was more than 100 µM each time. Moreover, the TGI in experiment [10], in [7] and in experiment [8] was more than 100 µM in each case.
Consider `CSc1nc(-c2ccc(Cl)cc2)c(C#N)c(=O)n1C1OC(COC(C)=O)C(OC(C)=O)C(OC(C)=O)C1OC(C)=O` (stereo unspecified), for which the TGI is more than 100 µM in [1]; more than 100 µM in experiment [2]; 32 µM and 82.7 µM in experiment [3]; more than 100 µM in experiment [4]; more than 100 µM in experiment [5]; more than 100 µM in experiment [6]. The TGI in experiment [10], in experiment [7] and in experiment [8] was more than 100 µM throughout. For the same molecule, the GI50 is 23.1 µM and > 100 µM in [2]; 10.4 µM and 4.43 µM in [3]; 29.3 µM and > 100 µM in experiment [4]; 34.7 µM and 88.9 µM in experiment [6]; 27.3 µM and > 100 µM in experiment [10]; 31.3 µM and > 100 µM in experiment [7]. Moreover, the GI50 in experiment [8] was 34.6 µM and > 100 µM.
Consider `O=C(Nc1ccc(C(F)(F)F)cc1)NC(F)(F)F`, for which the TGI in experiment [1], in experiment [2], in experiment [4], in experiment [6], in experiment [7] and in experiment [8] was more than 100 µM throughout.
As to `COc1cccc2c1c1ccc3c(c1n2C)C(=O)C=CC3=O`, the TGI in experiment [2] is 27.2 µM; in [3] it was 25.9 µM; in experiment [4] it was 12.6 µM; in experiment [5], more than 100 µM; in experiment [6], 27.7 µM; in experiment [10], more than 100 µM. Also, the TGI is more than 100 µM in experiment [7] and 11.6 µM in experiment [8].
Consider `CCOCCOCCOCc1nc(C#N)c(N)o1`, for which the TGI in [9], in experiment [1], in experiment [2], in experiment [4], in experiment [5] and in [6] was more than 100 µM throughout. The TGI in [10], in [7] and in experiment [8] was more than 100 µM each time.
Consider `O=c1ccc2ccc(OP(=O)(O)O)cc2o1`, for which the TGI in [9], in experiment [1], in experiment [2], in experiment [4], in experiment [5] and in experiment [6] was more than 100 µM each time. Moreover, the TGI in experiment [10], in experiment [7] and in experiment [8] was more than 100 µM in each case.

(Values after PubChem BioAssay (NCI).)
